Tested on: Aβ production in HEK cells over-expressing mutated β-APP (SFAD)
Test: Aβ production inhibition, sandwich-ELISA in HEK cells, over-expressed mutated β-APP (SE-SFAD)
Format: cell-based, human
Conditions: for IC50: based on the respective plateau of maximum inhibition; for Emax: maximum inhibition plateau, read-out: SE-SFAD max. inhibition %
Description: The effect of test substances on the inhibition of Aβ-amyloid production can be measured in the supernatant of cell cultures of β-APP expressed cells using ELISA tests or other quantitative determination methods for β-APP degradation products. Typically, 8×10^5 cells (e.g. HEK cells, which express recombinant human β-APP variants) are plated out in each well of a culture dish having 24 wells in growth media such as e.g. OPTIMEM (Gibco) and the test compound is then added. After an incubation period of 24 to 48 hours at 37° C. in a 10% CO2 atmosphere the supernatant is removed from the cell cultures and the β-APP degradation products (e.g. Aβ or β-[…]) are determined with the aid of ELISA (or sandwich ELISA) analysis or by means of quantitative immunoprecipitation (after metabolic radiolabelling of the cell proteins). Typically, 300 μl of the cell supernatant are tested according to the state of the art for ELISA tests in culture dishes having 96 wells. In the case of sandwich ELISA for Aβ, the binding antibody can be directed against the first 16 amino acids of Aβ-peptide (e.g. 6E10 Senetek, Maryland Heights, Mo.) and the detection antibody can be directed against amino acids 17-40 or 17-42 of Aβ and carries a detection system such as e.g. peroxidase. A simple ELISA test with an antibody, e.g. 22C11 (Boehringer Mannheim), can be used as the test for […]; the second antibody can be an anti-(mouse) Ig having a detection system, such as e.g. peroxidase. The peroxidase reaction can be carried out e.g. using a TMB substrate (BioRAD) and the measurements can be carried out at 650 nm using an ELISA reading apparatus. […] SE-SFAD signifies the Aβ production inhibition measured using sandwich-ELISA in HEK cells, SFAD signifies over-expressed mutated β-APP, and SE-WT signifies the Aβ production inhibition measured using sandwich-ELISA in HEK cells which over-express Wild type β-APP. The IC50 values are based on the respective plateau of maximum inhibition.

[1] = Homo sapiens, HEK293, HEK cells

Compound | IC50 [1] | Emax [1] | IC50 (HEK cells)
CCOC(=O)c1cc(-c2ccc(C)cc2)c(=O)n2ccc3ccsc3c12 [Compound 151, Ethyl 7-oxo-8-p-tolyl-7H-thieno[2,3-a]quinolizine-10-carboxylate] | 800 nM | 100% | –
CCN(CC)Cc1cccc(COC(=O)c2cc(-c3ccccc3)c(=O)n3ccc4ccsc4c23)c1 [Compound 60, 3-Diethylamino-methyl-benzyl 7-oxo-8-phenyl-7H-thieno[2,3-a]-quinolizine-10-carboxylate methanesulphonate] | 1200 nM | 100% | –
CCCc1cc2ccn3c(=O)c(-c4ccc(OCc5ccccc5)cc4)cc(C(=O)N(CCOC)c4ccccc4)c3c2s1 [Compound 79, 8-(4-Benzyloxy-phenyl)-2-propyl-7-oxo-7H-thieno[2,3-a]quinolizine-10-carboxylic acid (2-methoxy-ethyl)-phenyl-amide] | – | 20 to 35% | –
COCCN(CCOC)C(=O)c1cc(-c2ccc(OC)cc2)c(=O)n2ccc3ccsc3c12 [Compound 145, 8-(4-Methoxy-phenyl)-7-oxo-7H-thieno[2,3-a]quinolizine-10-carboxylic acid bis-(2-methoxy-ethyl)-amide] | 5000 nM | 100% | –
COCCN(Cc1ccccc1)C(=O)c1cc(-c2ccc(OCc3ccccc3)cc2)c(=O)n2ccc3ccsc3c12 [Compound 71, 8-(4-Benzyloxy-phenyl)-7-oxo-7H-thieno[2,3-a]quinolizine-10-carboxylic acid benzyl-(2-methoxy-ethyl)-amide] | 570 nM | 100% | –
COCCN(Cc1ccccc1)C(=O)c1cc(-c2ccc(C(C)(C)C)cc2)c(=O)n2ccc3ccsc3c12 [Compound 113, 8-(4-tert-Butyl-phenyl)-7-oxo-7H-thieno[2,3-a]quinolizine-10-carboxylicacid benzyl-(2-methoxy-ethyl)-amide] | 3000 nM | 100% | –
COCCN(C(=O)c1cc(-c2ccc(C(C)(C)C)cc2)c(=O)n2ccc3ccsc3c12)c1ccccc1 [Compound 111, 8-(4-tert-Butyl-phenyl)-7-oxo-7H-thieno[2,3-a]quinolizine-10-carboxylicacid (2-methoxy-ethyl)-phenyl-amide] | 2500 nM | 100% | –
COCCN(C(=O)c1cc(-c2ccc(OCc3ccccc3)cc2)c(=O)n2ccc3cc(C)sc3c12)c1ccccc1 [Compound 74] | 300 nM | 100% | –
CCN(CCOC)C(=O)c1cc(-c2ccc(OCc3ccccc3)cc2)c(=O)n2ccc3ccsc3c12 [Compound 68, 8-(4-Benzyloxy-phenyl)-7-oxo-7H-thieno[2,3-a]quinolizine-10-carboxylic acid ethyl-(2-methoxy-ethyl)-amide] | 8000 nM | 25% | –
NC(=O)c1cc(-c2ccccc2)c(=O)n2ccc3ccsc3c12 [Compound 56, 7-Oxo-8-phenyl-7H-thieno[2,3-a]quinolizine-10-carboxylic acid amide] | 1000 nM | 35% | –
COCCN(C(=O)c1cc(-c2ccc(OCc3ccccc3)cc2)c(=O)n2ccc3c(ncn3C)c12)c1ccccc1 [Compound 102, 8-(4-Benzyloxy-phenyl)-3-methyl-7-oxo-3,7-dihydro-imidazo [4,5-a]quinolizine-10-carboxylic acid (2-methoxy-ethyl)-phenyl-amide] | 3600 nM | 80% | –
CCN(CCOC)C(=O)c1cc(-c2ccc(C)cc2)c(=O)n2ccc3ccsc3c12 [Compound 149, 7--Oxo-8-p-tolyl-7H-thieno[2,3-a]quinolizine-10-carboxylic acid ethyl-(2-methoxy-ethyl)-amide] | 2400 nM | 100% | –
COCCNC(=O)c1cc(-c2ccc(OCc3ccccc3)cc2)c(=O)n2ccc3ccsc3c12 [Compound 66, 8-(4-Benzyloxy-phenyl)-7-oxo-7H-thieno[2,3-a]quinolizine-10-carboxylic acid (2-methoxy-ethyl)-amide] | 22000 nM | 60% | –
CCN(CCOC)C(=O)c1cc(-c2ccccc2OC)c(=O)n2ccc3ccsc3c12 [Compound 122, 8-(2-Methoxy-phenyl)-7-oxo-7H-thieno[2,3-a]quinolizine-10-carboxylic acidethyl-(2-methoxy-ethyl)-amide] | 8000 nM | 25% | –
COc1ccc(NC(=O)c2cc(-c3ccccc3OC)c(=O)n3ccc4ccsc4c23)cc1 [Compound 142, 8-(2-Methoxy-phenyl)-7-oxo-7H-thieno[2,3-a]quinolizine-10-carboxylic acid (4-methoxy-phenyl)-amide] | 1500 nM | 20 to 100% | –
COC(=O)c1cc(-c2ccc(Oc3ccccc3)cc2)c(=O)n2ccc3ccsc3c12 [Compound 96, Methyl 7-oxo-8-(4-phenoxy-phenyl)-7H-thieno[2,3-a]quinolizine-10-carboxylate] | 1000 nM | 40% | –
COc1cccc(-c2cc(C(=O)Nc3ccncc3)c3c4sccc4ccn3c2=O)c1 [Compound 124, 8-(3-Methoxy-phenyl)-7-oxo-7H-thieno[2,3-a]quinolizine-10-carboxylic acid pyridin-4yl-amide] | 800 nM | 35% | –
CCN(CCOC)C(=O)c1cc(-c2ccc(-c3ccccc3)cc2)c(=O)n2ccc3ccsc3c12 [Compound 93, 8-(Biphenyl-4-yl)-7-oxo-7H-thieno[2,3-a]quinolizine-10-carboxylic acid ethyl-(2-methoxy-ethyl)-amide] | 4200 nM | 100% | –
COC(=O)c1cc(-c2cccc(C(F)(F)F)c2)c(=O)n2ccccc12 [Compound 17, Methyl 4-oxo-3-(3-trifluoromethyl-phenyl)-4H-quinolizine-1-carboxylate] | 500 nM | 30% | –
COCCN(Cc1ccccc1)C(=O)c1cc(-c2ccccc2OC)c(=O)n2ccc3ccsc3c12 [Compound 120, 8-(2-Methoxy-phenyl)-7-oxo-7H-thieno[2,3-a]quinolizine-10-carboxylic acid benzyl-(2-methoxy-ethyl)-amide] | 1800 nM | 100% | –
COCCN(CC1CC1)C(=O)c1cc(-c2ccc(OCc3ccccc3)cc2)c(=O)n2ccc3c(ncn3C)c12 [Compound 104, 8-(4-Benzyloxy-phenyl)-3-methyl-7-oxo-3,7-dihydro-imidazo [4,5-a]-quinolizine-10-carboxylic acid cyclopropylmethyl-(2-methoxy-ethyl)-amide] | 3000 nM | 100% | –
COCCN(CC1CC1)C(=O)c1cc(-c2ccc(OC)cc2)c(=O)n2ccc3ccsc3c12 [Compound 146, 8-(4-Methoxy-phenyl)-7-oxo-7H-thieno[2,3-a]quinolizine-10-carboxylic acid cyclopropylmethyl-(2-methoxy-ethyl)-amide] | 1500 nM | 100% | –
COCCN(CC1CC1)C(=O)c1cc(-c2ccc(C(C)(C)C)cc2)c(=O)n2ccc3ccsc3c12 [Compound 112, 8-(4-tert-Butyl-phenyl)-7-oxo-7H-thieno[2,3-a]quinolizine-10-carboxylicacid cyclopropylmethyl-(2-methoxy-ethyl)-amide] | 1500 nM | 100% | –
COCCN(C(=O)c1cc(-c2ccc(OCc3ccccc3)cc2)c(=O)n2ccc3ccsc3c12)C(C)C [Compound 69, 8-(4-Benzyloxy-phenyl)-7-oxo-7H-thieno[2,3-a]quinolizine-10-carboxylic acid isopropyl-(2-methoxy-ethyl)-amide] | 800 nM | 45% | –
COCCN(C(=O)c1cc(-c2ccc(Oc3ccccc3)cc2)c(=O)n2ccc3ccsc3c12)c1ccccc1 [Compound 101, 7--Oxo-8-(4-phenoxy-phenyl)-7H-thieno[2,3-a]quinolizine-10-carboxylic acid (2-methoxy-ethyl)-phenyl-amide] | 900 nM | 100% | –
COC(=O)c1cc(-c2ccccc2OC)c(=O)n2ccc3ccsc3c12 [Compound 114, Methyl 8-(2-methoxy-phenyl)-7-oxo-7H-thieno[2,3-a]quinolizine-10-carboxylate] | – | 70% | 6300 nM
CCCN(CCOC)C(=O)c1cc(-c2ccc(OC)cc2)c(=O)n2ccc3ccsc3c12 [Compound 148, 8-(4-Methoxy-phenyl)-7-oxo-7H-thieno[2,3-a]quinolizine-10-carboxylic acid (2-methoxy-ethyl)-propyl-amide] | 5000 nM | 100% | –
COCCN(C(=O)c1cc(-c2ccc(OC)cc2)c(=O)n2ccc3ccsc3c12)c1ccccc1 [Compound 147, 8-(4-Methoxy-phenyl)-7-oxo-7H-thieno[2,3-a]quinolizine-10-carboxylic acid (2-methoxy-ethyl)-phenyl-amide] | 1500 nM | 100% | –

— US5869500A, “Pyridone compounds useful in treating Alzheimer's disease” (Hoffmann-La Roche Inc., priority 1996, dated 1999)
